Where two headings read alike, the source gives them in different places.
What was measured:
[1] = In vitro diffusion test (Franz cells); format: in vitro ADME; conditions: PALA 50 mg/g, 37° C., PBS pH 7.4
Protocol: All the formulations were prepared by accurately weighing 50 mg PALA in a 4 mL glass vial. The vial was stirred at RT until a clear solution was obtained. Exception for poloxamers P407 20% w/w and P188 at 40% w/w where the PALA solubilisation was performed by stirring the vial in an ice bath (to prevent gelling which occurred at RT).
In vitro diffusion test (Franz cells, Copley) was performed to mimicking in-vivo conditions of PALA (CMI-34-1) transfer from the formulation through the skin. The test was performed in sink conditions. 100 μL of PALA (CMI-34-1)-loaded hydrogels or bi-gel (containing 5 mg of API) were added to the donor chamber of the Franz cells. 7 mL of PBS pH 7.4 was added to the receptor chamber. The chambers were separated by a Strat-M Membrane (Transdermal Diffusion Test Model, Merck) of 25 mm diameter. The Franz cells were incubated at 37° C. in an appropriate heating block and under stirring at 450 rpm. At selected time points (15, 30, 60, 120, 180, and 1440 minutes), 100 μL of samples was withdrawn from the receptor chamber and analysed by HPLC for drug release. The same volume was replaced with fresh PBS buffer pre-heated at 37° C.

[2] = test system: UVB-induced skin tumors; assay: Immunostaining of excised skin tumors (cell cycle markers, antimicrobial peptides, immune cells); format: in vivo, SKH1-Elite mice
[3] = test system: chemical carcinogen-induced skin cancer; conditions: 2% (w/v) PALA in 50% acetone/10% glycerol, topical, 4 weeks
Protocol: SKH1-Elite female mice were treated topically with DMBA for 2 weeks and then treated topically with TPA thrice a week for 8 weeks to induce skin cancer. Mice were then randomized into treatment groups and treated topically with vehicle (50% acetone/10% glycerol) or 2% (w/v) PALA for 4 weeks. A. Quantitation of mean change in tumor burden per mouse during the treatment period as a percentage of the tumor number on week 9. B. Weight change during the treatment period presented as percentage of baseline weight. C. Levels of the liver and systemic inflammation marker serum amyloid A (SAA) at endpoint. D. Measurements of colon length at endpoint as a gross measure of intestinal pathology. Means±SEM, n=8-9/group. Significance determined by 2-way ANOVA with Sidak's multiple comparisons test or unpaired […] t-test. All p values <0.05 are shown on the graphs.

[4] = biological target: aspartate transcarbamylase (Escherichia coli, UniProt P0A786); conditions: transition-state analog inhibitor; cited from earlier work
[5] = Toxicity markers in UVB-tumor-bearing mice under topical treatment (weight, SAA, colon length, fecal LCN2)
Protocol: Serum amyloid A levels were measured in plasma samples using the Mouse SAA ELISA kit (E-90SAA, Immunology Consultants Laboratory, Inc.) according to manufacturer's instructions. Lipocalin-2 (LCN2) was quantified from pre-weighed stool samples homogenized in 0.5 mL PBS using the Mouse Lipocalin-2/NGAL DuoSet ELISA (DY1857) and DuoSet Ancillary Reagent Kit 2 (DY008, R&D Systems).

[6] = test system: cytokines and chemokines in treated skin; conditions: mouse, in vivo
Protocol: The topical formulations of 2% PALA/50% acetone/10% glycerol, 5% imiquimod (IMQ), 5% 5-FU (5-FU), vehicle (50% acetone/10% glycerol) control, and Aquaphor were applied (~0.05 g/mouse) daily to the dorsal skin of SKH1-Elite female mice (8 weeks of age; n=5/group) for 7 days. […] Mice were monitored daily for weight change, skin appearance, and signs of distress.
Skin protein lysates were made by homogenizing frozen tissue with a pestle and scissors in RIPA buffer (50 mM Tris, pH8, 150 mM NaCl, 0.5% sodium deoxycholate, 1% NP-40, 0.1% sodium dodecyl sulfate, lx Pierce protease inhibitor cocktail (A32965, ThermoFisher)). Cytokines and chemokines were quantified from 25 μg of lysate using a custom 10-plex U-PLEX panel (K15069L-2; Meso Scale Discovery) that included: GM-CSF, KC/CXCL1, IFNα, IFNβ, IFNγ, IL-10, IL-6, IL-12p70, IL-17A, IL-17C, IL-17F, IP-10/CXCL10, MCP-1/CCL2, RANTES/CCL5, and TNFα. The MESO SECTOR S 600 plate reader (ICOAA-0; Meso Scale Discovery) was used to collect the U-Plex data and data was analyzed using MSD Discovery Workbench 4.0 software.

[7] = test system: MOC-1 squamous cell carcinoma cells; assay: Oral squamous cell carcinoma orthotopic xenograft (tongue); format: in vivo, C57Bl/6 mice; conditions: 2% (w/w) PALA (AP0536/29/02), tongue treated topically 5×/week
Protocol: FIG. 18: Tumor growth of oral squamous cell carcinoma orthotopic xenografts is retarded by topical PALA treatment. C57Bl/6 mice (males and females; n=6/group) were injected with MOC-1 squamous cell carcinoma cells in the tongue. Once palpable tumors formed, mouse tongues were treated topically 5×/week with vehicle (AP0536/29/02) or 2% (w/w) PALA (AP0536/29/02). Tumor volume was measured by caliper every 2-3 days. Data are graphed as mean±SEM. Significant differences were determined by Mixed-effects Model (REML) with Sidak's multiple comparison test. *p<0.05, ****p<0.0001.

[8] = test system: chemical carcinogen-induced skin cancer; assay: Chemical carcinogen (DMBA/TPA)-induced skin cancer model, C57BL/6; format: in vivo, C57BL/6 female mice; conditions: 2% (w/v) PALA/Aquaphor, topical, 4 weeks
Text: Means±SEM, n=5-6/group. Significance determined by 2-way ANOVA

[9] = test system: UVB-induced NMSC (AK lesions and SCC tumors); assay: UVB-induced NMSC mouse model: tumor number, area, growth phenotype and grade; conditions: for total tumors at endpoint: vehicle 12.5±2.4
[10] = 2% (w/w) PALA (AP0536/29/02), daily, 4 weeks
[11] = individual tumors, PALA n = 48, vehicle 7.3%

Chain of aspartate transcarbamylase (P0A786 2-311): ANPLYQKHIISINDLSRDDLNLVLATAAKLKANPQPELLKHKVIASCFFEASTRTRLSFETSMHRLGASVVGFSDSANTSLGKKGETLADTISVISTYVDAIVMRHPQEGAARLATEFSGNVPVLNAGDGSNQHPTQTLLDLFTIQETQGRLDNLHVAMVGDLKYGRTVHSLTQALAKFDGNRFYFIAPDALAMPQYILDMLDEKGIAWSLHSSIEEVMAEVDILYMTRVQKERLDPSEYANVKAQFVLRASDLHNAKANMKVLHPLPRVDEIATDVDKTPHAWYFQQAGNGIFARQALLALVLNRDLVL

In the case of `O=C(O)CC(NC(=O)CP(=O)(O)O)C(=O)O` [PALA, N-phosphonacetyl-L-aspartate], the “PALA permeated / released after 24 hours” value [1] is reported as ~ 0.3%, the “CD8+ cytotoxic T cells in tumors” value ([2]; PALA compared to vehicle-treated controls) is reported as “elevated numbers” and the “F4/80+ macrophages in tumors” value ([2]; PALA relative to vehicle-treated controls) is reported as “increased numbers”. For the same compound, the “LL-37+ cells in tumor samples” value ([2]; PALA vs vehicle) was “significantly increased”, the “numbers of MPO+ cells (neutrophils) in tumors” value ([2]; PALA vs vehicle) was “the same” and the “overall number of CD3+ T cells within tumor tissue” value ([2]; PALA vs vehicle) was “the same”. The “total area of DefB14 staining within tumors” value ([2]; PALA vs vehicle) was “not different”, the “phospho-histone H3+ cells” value ([2]; excised tumors, 2% PALA, vehicle 3.1%, p=0.0067) was 4.9% and the “Ki67+ cells per tumor” value ([2]; excised tumors, 2% PALA, vehicle 10.4%, p=0.005) was 24.6%. The “cyclin D1+ cells per tumor” value ([2]; excised tumors, 2% PALA, vehicle 48.9%, p=0.0329) was 39.4%, the “cyclin B1+ or cyclin A2+ cell populations” value ([2]; excised tumors, PALA vs vehicle) was “No differences” and the “change in tumor burden” value [3] was “trends of efficacy in reducing tumor burden”. The “potency as inhibitor of aspartate transcarbamylase” value [4] was “nanomolar potency”, the “skin irritation or weight loss” value ([5]; 1, 2 or 5% (w/v) PALA in 50% acetone/10% glycerol, daily topical, 10 weeks) was “no apparent skin irritation or weight loss” and the “circulating levels of serum amyloid A (SAA) at endpoint” value ([5]; 1, 2 or 5% (w/v) PALA vs vehicle, daily topical, 10 weeks, trends of higher SAA at 1% and 5%) was “No significant differences”. For the same compound, the “gross colon pathology and colon lengths at harvest” value ([5]; 1, 2 or 5% (w/v) PALA, daily topical, 10 weeks) was “None of the mice had any apparent gross colon pathology or significant differences in colon lengths”, the “change in weight from the start of treatment” value ([5]; 2% (w/w) PALA (AP0536/29/02) vs 5% 5-FU and 5% IMQ, daily, 4 weeks) was “maintain weight is better than 5-FU or IMQ treated mice” and the “weight, SAA levels, gross intestinal pathology, LCN2 levels vs vehicle” value ([5]; 2% PALA, daily topical, 10 weeks) was “no significant differences”. The “fecal lipocalin-2 (LCN2) at endpoint” value ([5]; 5% PALA, daily topical, 10 weeks, vehicle 18.1±6.0, p=0.032) was 186.8±121.1, the “concentration up to which topical PALA is well tolerated” value ([5]; 10 weeks of daily treatment) was “up to 5 % (w/v)” and the “GM-CSF, Mean (SEM)” value [6] was 1.0 (0.1). For the same compound, the “IL-6, Mean (SEM)” value [6] was 38.8 (8.1), the “IL-17A, Mean (SEM)” value [6] was 0.5 (0.09) and the “IL-17C, Mean (SEM)” value [6] was 0.6 (0.1). For the same compound, the “KC, Mean (SEM)” value [6] was 31.1 (2.8), the “RANTES, Mean (SEM)” value [6] was 46.4 (9.6) and the “expression of inflammatory cytokine/chemokine panel in treated skin (in words)” value [6] was “no changes”. The “tumor growth (tumor volume)” value [7] was “retarded”, the “change in tumor burden” value [8] was “effective in reducing tumor burden” and the “total tumors at endpoint” value ([9]; 1% PALA in 50% acetone/10% glycerol, daily topical, 10 weeks) was 11.7±3.8. For the same compound, the “average tumor burden, % of original size at endpoint” value (from here on “average tumor burden, %”) ([9]; 1% PALA, daily topical, 10 weeks, vehicle 286.4%±62.6) was 275.0%±84.7, the “shape of dose-response, average number of tumors per mouse at end of treatment” value ([9]; 1%, 2%, 5% PALA in Aquaphor 10 weeks, 4% (w/w) PALA 4 weeks) was “U-shaped dose-response curves” and the “growth profile of individual tumors” value [9, 10] was “lower percentage of continually growing tumors”. For the same compound, the “mean tumor surface area per tumor (average tumor size)” value [9, 10] was “significantly smaller average tumor size than either vehicle or 5% IMQ treated mice”, the endpoint tumor grade ([9]; 2% (w/w) PALA (AP0536/29/02), daily, 4 weeks, vs vehicle or 5% IMQ) was “fewer squamous cell carcinoma (SCC) and SCC in situ tumors” and the “total tumors at endpoint” value ([9]; 2% PALA in 50% acetone/10% glycerol, daily topical, 10 weeks) was 3.83±0.6. For the same compound, the “tumor levels of interleukin-1β” value ([9]; 2% PALA or 5% IMQ, daily, 4 weeks) was “elevated”, the “mean tumor cross-sectional area, endpoint value” ([9]; 2% PALA, daily topical, 10 weeks, vehicle 4.4, p=0.003) was 2.4 mm^2 and the “mean surface tumor area, endpoint value” ([9]; 2% PALA, daily topical, 10 weeks, vehicle 197.1, p<0.0001) was 30.3 mm^2. The “average tumor burden, %” value ([9]; 2% PALA, daily topical, 10 weeks, vehicle 286.4%±62.6, 252.3%±34.3) was 99.2%±20.5, the “tumor levels of interferon-al” value ([9]; 2% PALA, daily, 4 weeks, compared with 5% IMQ) was “elevated only in 2% PALA treated mice” and the “total tumors at endpoint” value ([9]; 5% PALA in 50% acetone/10% glycerol, daily topical, 10 weeks) was 6.20±1.8. For the same compound, the “average tumor burden, %” value ([9]; 5% PALA, daily topical, 10 weeks, vehicle 286.4%±62.6) was 91.6%±13.4, the “concentrations demonstrating anti-tumor activity” value ([9]; 10 weeks of daily topical treatment) was no less than 2% and the “tumors shrinking after an initial period of growth or continually reducing in size” value ([9]; PALA treated tumors, 10 weeks) was 97.9%. The “proportion of AK/SCC in situ and benign lesions” value ([9]; PALA-treated mice, vehicle 31%, p<0.001) was 62%, the “prevalence of well differentiated SCC and poorly differentiated SCC” value ([9]; PALA-treated mice, vehicle 69%, p<0.0001) was 38% and the “Total Tumor Number: Poorly Differentiated SCC” value ([9]; excised tumors, 2% PALA daily 10 weeks, vehicle 25) was 6. For the same compound, the “Total Tumor Number: Benign/ Hyperplastic” value ([9]; excised tumors, vehicle 0) was 8, the “Total Tumor Number: AK/SCC in situ” value ([9]; excised tumors, vehicle 28) was 23 and the “Total Tumor Number: Well Differentiated SCC” value ([9]; excised tumors, vehicle 37) was 12. The “Tumor Growth Outcome: Same, %” value [9, 11] was 0 (0%), the “Tumor Growth Outcome: Smaller, %” value [9, 11] was 4.1% and the “Tumor Growth Phenotype: No Change, %” value [9, 11] was 0 (0%). The “Tumor Growth Phenotype: Continual Shrinkage, %” value ([9]; individual tumors, PALA n = 48, vehicle 17.0%) was 29.1%, the “Tumor Growth Outcome: Resolved, %” value ([9]; individual tumors, PALA n = 48, vehicle 26.8%) was 83.3% and the “Tumor Growth Phenotype: Grow then Shrink, %” value ([9]; individual tumors, PALA n = 48, vehicle 29.2%) was 68.7%. For the same compound, the “Tumor Growth Phenotype: Continual Growth, %” value ([9]; individual tumors, PALA n = 48, vehicle 46.3%) was 2.0%, the “Tumor Growth Outcome: Larger, %” value ([9]; individual tumors, PALA n = 48, vehicle 58.5%) was 12.5% and the “tumor burden and total tumor area” value ([9]; reformulated 2% (w/v) PALA (AP0536/29/02), daily, 6 weeks) was “effective in reducing tumor burden and total tumor area”. The “Tumor Prevalence: Benign/ Hyperplastic” value ([9]; vehicle 0%) was 13%, the “Tumor Area: Benign/ Hyperplastic, mean (SEM)” value ([9]; vehicle 0 (0)) was 1.4 (0.3) and the “Tumors / Mouse: Benign/ Hyperplastic, mean (SEM)” value ([9]; vehicle 0 (0)) was 0.5 (0.6). For the same compound, the “Tumor Cross Sectional Area: AK/SCC in situ, mean (SEM)” value ([9]; vehicle 1.5 (0.7)) was 1.1 (1.0) mm^2, the “Tumors / Mouse: Poorly Differentiated SCC, mean (SEM)” value ([9]; vehicle 2.0 (1.6)) was 0.5 (0.9) and the “Tumors / Mouse: AK/SCC in situ, mean (SEM)” value ([9]; vehicle 2.3 (2.1)) was 1.9 (1.2). The “Tumors / Mouse: Well Differentiated SCC, mean (SEM)” value ([9]; vehicle 3.0 (1.8)) was 1.0 (1.1), the “Tumor Area: AK/SCC in situ, mean (SEM)” value ([9]; vehicle 3.4 (6.6)) was 2.3 (2.0) and the “Tumor Cross Sectional Area: Well Differentiated SCC, mean (SEM)” value ([9]; vehicle 3.7 (2.0)) was 3.1 (2.2) mm^2. For the same compound, the “Tumor Cross Sectional Area: Poorly Differentiated SCC, mean (SEM)” value ([9]; vehicle 9.2 (5.8)) was 9.8 (6.4) mm^2, the “Tumor Area: Well Differentiated SCC, mean (SEM)” value ([9]; vehicle 10.7 (18.0)) was 7.5 (4.5) and the “Tumor Prevalence: Poorly Differentiated SCC” value ([9]; vehicle 28%) was 13%. For the same compound, the “Tumor Prevalence: AK/SCC in situ” value ([9]; vehicle 31%) was 49%, the “Tumor Prevalence: Well Differentiated SCC” value ([9]; vehicle 41%) was 25% and the “Tumor Area: Poorly Differentiated SCC, mean (SEM)” value ([9]; vehicle 59.5 (77.3)) was 62.6 (70.0). For the same compound, the “Tumor Cross Sectional Area: Benign/ Hyperplastic, mean (SEM)” value ([9]; vehicle n/a) was 1.7 (2.0) mm^2.
